# Measured values taken from US20230035892A1, “METHODS AND COMPOSITIONS FOR TREATING CANCER” (Flagship Pioneering Innovations V, Inc., priority 2019, published 2023).
# Assays:
# Assay type in all cases: cell-based
# MIAPACA2 = assay: Proliferation, percent viability normalized to DMSO; conditions: Homo sapiens, MIA PaCa-2
# From the text: (§1) The GRK2 small molecule antagonist of Formula III-26 was used to evaluate the effect of a small molecule GRK2 antagonist on the proliferation of pancreatic cancer cell lines Miapaca2, Panc1, BXPC3, PAXF1657, PAXF1997 and Capan1. Values represent percent viability normalized to DMSO.
# PAXF1657 = assay: as above
# From the text: as §1
# BXPC3 = assay: as above; conditions: Homo sapiens, BXPC-3
# From the text: as §1
# PAXF1997 = assay: as above
# From the text: as §1
# Capan1 = assay: as above; conditions: Homo sapiens, CAPAN-1
# From the text: as §1
# PANC1 = assay: as above; conditions: Homo sapiens, PANC-1
# From the text: as §1
# [1] = test system: sgGrk2-expressing Miapaca2 cells; assay: Colony formation assay in sgGrk2-expressing cells (target specificity); conditions: Miapaca
# Procedure: To assess the target specificity of the GRK2 small molecule antagonist of Formula III-26, sgGRK2-expressing cells were treated with the compound of Formula III-26. If GRK2 knockout is complete and the compound of Formula III-26 inhibits only GRK2, the addition of the compound of Formula III-26 should not induce any additional growth defect compared to sgRNA KO alone. […] This is potentially due to the lower GRK2 knockout efficiency that can be achieved in PAXF1657 compared to Miapaca2, as shown in Table 16.
# [2] = test system: pancreatic cancer cell lines; assay: Long-term colony formation assay (10-14 days); conditions: colony formation 10-14 days
# From the text: Different concentrations of the compound of Formula III-26 were then used to evaluate its effect on pancreatic cancer cell line proliferation in a long-term colony formation assay (10-14 days).
structure (smiles),measurement,setting,value
Cn1c(CNc2cccc(C(=O)NCc3ccccc3C(F)(F)F)c2)nnc1-c1ccncc1 [Compound of Formula III-26],viability at 0.005 µM,"MIAPACA2; Miapaca2, dose 0.005 μM",102%
same,viability at 0.014 µM,"MIAPACA2; Miapaca2, dose 0.014 μM",105%
same,viability at 0.041 µM,"MIAPACA2; Miapaca2, dose 0.041 μM",108%
same,viability at 0.123 µM,"MIAPACA2; Miapaca2, dose 0.123 μM",111%
same,viability at 0.37 µM,"MIAPACA2; Miapaca2, dose 0.370 μM",114%
same,viability at 1.111 µM,"MIAPACA2; Miapaca2, dose 1.111 μM",99.3%
same,viability at 3.333 µM,"MIAPACA2; Miapaca2, dose 3.333 μM",86.6%
same,viability at 10 µM,"MIAPACA2; Miapaca2, dose 10.000 μM",66.1%
same,viability at 30 µM,"MIAPACA2; Miapaca2, dose 30.000 μM",40%
same,viability at 0.005 µM,"PAXF1657; PAXF1657, dose 0.005 μM",111%
same,viability at 0.014 µM,"PAXF1657; PAXF1657, dose 0.014 μM",111%
same,viability at 0.041 µM,"PAXF1657; PAXF1657, dose 0.041 μM",116%
same,viability at 0.123 µM,"PAXF1657; PAXF1657, dose 0.123 μM",118%
same,viability at 0.37 µM,"PAXF1657; PAXF1657, dose 0.370 μM",115%
same,viability at 1.111 µM,"PAXF1657; PAXF1657, dose 1.111 μM",110%
same,viability at 3.333 µM,"PAXF1657; PAXF1657, dose 3.333 μM",102%
same,viability at 10 µM,"PAXF1657; PAXF1657, dose 10.000 μM",88.6%
same,viability at 30 µM,"PAXF1657; PAXF1657, dose 30.000 μM",69%
same,viability at 0.005 µM,"BXPC3; BXPC3, dose 0.005 μM",106%
same,viability at 0.014 µM,"BXPC3; BXPC3, dose 0.014 μM",105%
same,viability at 0.041 µM,"BXPC3; BXPC3, dose 0.041 μM",104%
same,viability at 0.123 µM,"BXPC3; BXPC3, dose 0.123 μM",104%
same,viability at 0.37 µM,"BXPC3; BXPC3, dose 0.370 μM",108%
same,viability at 1.111 µM,"BXPC3; BXPC3, dose 1.111 μM",102%
same,viability at 3.333 µM,"BXPC3; BXPC3, dose 3.333 μM",91.5%
same,viability at 10 µM,"BXPC3; BXPC3, dose 10.000 μM",77%
same,viability at 30 µM,"BXPC3; BXPC3, dose 30.000 μM",75.8%
same,viability at 0.005 µM,"PAXF1997; PAXF1997, dose 0.005 μM",111%
same,viability at 0.014 µM,"PAXF1997; PAXF1997, dose 0.014 μM",111%
same,viability at 0.041 µM,"PAXF1997; PAXF1997, dose 0.041 μM",112%
same,viability at 0.123 µM,"PAXF1997; PAXF1997, dose 0.123 μM",114%
same,viability at 0.37 µM,"PAXF1997; PAXF1997, dose 0.370 μM",118%
same,viability at 1.111 µM,"PAXF1997; PAXF1997, dose 1.111 μM",110%
same,viability at 3.333 µM,"PAXF1997; PAXF1997, dose 3.333 μM",104%
same,viability at 10 µM,"PAXF1997; PAXF1997, dose 10.000 μM",83.7%
same,viability at 30 µM,"PAXF1997; PAXF1997, dose 30.000 μM",81.4%
same,viability at 0.005 µM,"Capan1; Capan1, dose 0.005 μM",107%
same,viability at 0.014 µM,"Capan1; Capan1, dose 0.014 μM",108%
same,viability at 0.041 µM,"Capan1; Capan1, dose 0.041 μM",112%
same,viability at 0.123 µM,"Capan1; Capan1, dose 0.123 μM",114%
same,viability at 0.37 µM,"Capan1; Capan1, dose 0.370 μM",112%
same,viability at 1.111 µM,"Capan1; Capan1, dose 1.111 μM",106%
same,viability at 3.333 µM,"Capan1; Capan1, dose 3.333 μM",100%
same,viability at 10 µM,"Capan1; Capan1, dose 10.000 μM",90%
same,viability at 30 µM,"Capan1; Capan1, dose 30.000 μM",95.4%
same,viability at 0.005 µM,"PANC1; Panc1, dose 0.005 μM",103%
same,viability at 0.014 µM,"PANC1; Panc1, dose 0.014 μM",112%
same,viability at 0.041 µM,"PANC1; Panc1, dose 0.041 μM",113%
same,viability at 0.123 µM,"PANC1; Panc1, dose 0.123 μM",113%
same,viability at 0.37 µM,"PANC1; Panc1, dose 0.370 μM",113%
same,viability at 1.111 µM,"PANC1; Panc1, dose 1.111 μM",113%
same,viability at 3.333 µM,"PANC1; Panc1, dose 3.333 μM",100%
same,viability at 10 µM,"PANC1; Panc1, dose 10.000 μM",85.2%
same,viability at 30 µM,"PANC1; Panc1, dose 30.000 μM",86.2%
same,Difference between rel +dox and −dox signal,"[1]; 1 μM, sgGRK2-pooled",0.00
same,Rel +dox,"[1]; 1 μM, sgGRK2-pooled",0.76
same,Rel −dox,"[1]; 1 μM, sgGRK2-pooled",0.75
same,Difference between rel +dox and −dox signal,"[1]; 1 μM, sgNTC",0.05
same,Rel +dox,"[1]; 1 μM, sgNTC",0.77
same,Rel −dox,"[1]; 1 μM, sgNTC",0.81
same,Difference between rel +dox and −dox signal,"[1]; 3 μM, sgGRK2-pooled",0.04
same,Rel +dox,"[1]; 3 μM, sgGRK2-pooled",0.43
same,Rel −dox,"[1]; 3 μM, sgGRK2-pooled",0.47
same,Difference between rel +dox and −dox signal,"[1]; 3 μM, sgNTC",0.12
same,Rel +dox,"[1]; 3 μM, sgNTC",0.53
same,Rel −dox,"[1]; 3 μM, sgNTC",0.65
same,Mean intensity,"[2]; BXPC3, 0.1 μM",396.24
same,Normalized to DMSO,"[2]; BXPC3, 0.1 μM",0.99
same,Mean intensity,"[2]; BXPC3, 0.3 μM",445.015
same,Normalized to DMSO,"[2]; BXPC3, 0.3 μM",1.11
same,Mean intensity,"[2]; BXPC3, 1 μM",418.98
same,Normalized to DMSO,"[2]; BXPC3, 1 μM",1.04
same,Mean intensity,"[2]; BXPC3, 3 μM",189.24
same,Normalized to DMSO,"[2]; BXPC3, 3 μM",0.47
same,Mean intensity,"[2]; BXPC3, 10 μM",82.2
same,Normalized to DMSO,"[2]; BXPC3, 10 μM",0.20
same,Mean intensity,"[2]; BXPC3, 30 μM",76.19
same,Normalized to DMSO,"[2]; BXPC3, 30 μM",0.19
same,Mean intensity,"[2]; Miapaca, 0.1 μM",447.5
same,Normalized to DMSO,"[2]; Miapaca, 0.1 μM",1.09
same,Mean intensity,"[2]; Miapaca, 0.3 μM",461.465
same,Normalized to DMSO,"[2]; Miapaca, 0.3 μM",1.13
same,Mean intensity,"[2]; Miapaca, 1 μM",398.675
same,Normalized to DMSO,"[2]; Miapaca, 1 μM",0.97
same,Mean intensity,"[2]; Miapaca, 3 μM",386.35
same,Normalized to DMSO,"[2]; Miapaca, 3 μM",0.94
same,Mean intensity,"[2]; Miapaca, 10 μM",80.16
same,Normalized to DMSO,"[2]; Miapaca, 10 μM",0.20
same,Mean intensity,"[2]; Miapaca, 30 μM",75.66
same,Normalized to DMSO,"[2]; Miapaca, 30 μM",0.18
same,Mean intensity,"[2]; PAXF1657, 0.1 μM",617.13
same,Normalized to DMSO,"[2]; PAXF1657, 0.1 μM",0.97
same,Mean intensity,"[2]; PAXF1657, 0.3 μM",660.9
same,Normalized to DMSO,"[2]; PAXF1657, 0.3 μM",1.04
same,Mean intensity,"[2]; PAXF1657, 1 μM",574.375
same,Normalized to DMSO,"[2]; PAXF1657, 1 μM",0.90
same,Mean intensity,"[2]; PAXF1657, 3 μM",410.77
same,Normalized to DMSO,"[2]; PAXF1657, 3 μM",0.64
same,Mean intensity,"[2]; PAXF1657, 10 μM",326.68
same,Normalized to DMSO,"[2]; PAXF1657, 10 μM",0.51
same,Mean intensity,"[2]; PAXF1657, 30 μM",271.275
same,Normalized to DMSO,"[2]; PAXF1657, 30 μM",0.43
same,Mean intensity,"[2]; PAXF1997, 0.1 μM",461.65
same,Normalized to DMSO,"[2]; PAXF1997, 0.1 μM",1.07
same,Mean intensity,"[2]; PAXF1997, 0.3 μM",500.34
same,Normalized to DMSO,"[2]; PAXF1997, 0.3 μM",1.16
same,Mean intensity,"[2]; PAXF1997, 1 μM",455.7
same,Normalized to DMSO,"[2]; PAXF1997, 1 μM",1.06
same,Mean intensity,"[2]; PAXF1997, 3 μM",379.285
same,Normalized to DMSO,"[2]; PAXF1997, 3 μM",0.88
same,Mean intensity,"[2]; PAXF1997, 10 μM",296.635
same,Normalized to DMSO,"[2]; PAXF1997, 10 μM",0.69
same,Mean intensity,"[2]; PAXF1997, 30 μM",288.38
same,Normalized to DMSO,"[2]; PAXF1997, 30 μM",0.67
same,Mean intensity,"[2]; Panc1, 0.1 μM",477.265
same,Normalized to DMSO,"[2]; Panc1, 0.1 μM",1.16
same,Mean intensity,"[2]; Panc1, 0.3 μM",478.195
same,Normalized to DMSO,"[2]; Panc1, 0.3 μM",1.17
same,Mean intensity,"[2]; Panc1, 1 μM",509.365
same,Normalized to DMSO,"[2]; Panc1, 1 μM",1.24
same,Mean intensity,"[2]; Panc1, 3 μM",504.735
same,Normalized to DMSO,"[2]; Panc1, 3 μM",1.23
same,Mean intensity,"[2]; Panc1, 10 μM",254.47
same,Normalized to DMSO,"[2]; Panc1, 10 μM",0.62
same,Mean intensity,"[2]; Panc1, 30 μM",181.7
same,Normalized to DMSO,"[2]; Panc1, 30 μM",0.44
